Here are results for five compounds from US20260001928A1 (CORTERIA PHARMACEUTICALS, priority 2022, published 2026).

*1 amine or outer side, *2 acyl side, *3 side chain or, on linkers, in order; H or OH if unused. Where a SMILES comes first, the peptide text is derived from it. Side-chain parts run from the residue outwards. [ ]: non-standard residue; d: D form. The star is where a group is joined. C18 diacid = O=C(O)CCCCCCCCCCCCCCCCC(=O)*; γGlu = O=C(O)[C@H](CCC(=O)[*:2])N[*:1]; NMeI = CC[C@H](C)[C@H](NC)C(=O)O; Api = NC1(C(=O)O)CCNCC1; Pentanoyl = CCCCC(=O)*; AEEA = NCCOCCOCC(=O)O; Aib = CC(C)(N)C(=O)O

The target in assay [1] is T1, CFR1R receptor (Homo sapiens, UniProt P34998).
T1 construct: host or cells: CHO-K1 (clone 2)
T1 sequence (P34998 24-415): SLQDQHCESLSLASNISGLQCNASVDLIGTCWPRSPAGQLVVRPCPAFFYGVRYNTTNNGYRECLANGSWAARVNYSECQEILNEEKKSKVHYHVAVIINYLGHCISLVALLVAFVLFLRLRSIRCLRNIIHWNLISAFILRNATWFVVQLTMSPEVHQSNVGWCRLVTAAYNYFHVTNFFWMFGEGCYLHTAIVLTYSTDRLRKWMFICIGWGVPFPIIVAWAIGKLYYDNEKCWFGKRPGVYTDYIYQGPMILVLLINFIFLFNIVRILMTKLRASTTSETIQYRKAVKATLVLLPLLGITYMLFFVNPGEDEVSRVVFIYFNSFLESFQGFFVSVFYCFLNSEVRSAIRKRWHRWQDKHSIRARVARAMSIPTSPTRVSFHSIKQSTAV
As to the kind of experiment: Activity at anti-target CFR1R receptor, cAMP assay in CRF1R-overexpression CHO-K1 cells. The assay is classed as cell-based. Particulars: 100% = Sauvagine at 100 nM; for EC50: cAMP. The method in brief:
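Clone 2 cells were cultured in F12 (Hams)/10% FBS/400 μg/ml G418 at 37° C./5% CO2, frozen in medium with 10% DMSO, and thawed vials used. The protocol followed the TeloHAEC procedure, with 4000 cells/well final and Sauvagine at 100 nM defining 100% activation.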

Assay [2] deals with T2, human CRF2a receptor (Homo sapiens, UniProt Q13324).
T2 construct: expressed in transfected cells; host or cells: TeloHEAC cells
T2 sequence (Q13324 1-411): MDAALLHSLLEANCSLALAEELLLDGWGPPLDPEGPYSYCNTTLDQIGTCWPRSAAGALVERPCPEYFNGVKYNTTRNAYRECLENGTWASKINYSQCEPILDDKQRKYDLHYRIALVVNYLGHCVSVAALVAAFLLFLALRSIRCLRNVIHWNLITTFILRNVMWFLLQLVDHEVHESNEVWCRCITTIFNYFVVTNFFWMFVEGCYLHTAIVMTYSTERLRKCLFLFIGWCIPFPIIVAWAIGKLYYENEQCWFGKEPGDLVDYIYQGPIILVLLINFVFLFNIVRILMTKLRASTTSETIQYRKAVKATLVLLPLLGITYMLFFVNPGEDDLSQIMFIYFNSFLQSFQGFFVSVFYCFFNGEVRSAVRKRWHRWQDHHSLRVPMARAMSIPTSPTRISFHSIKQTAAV
The assay can be described thus: Activity at human CRF2a receptor, cAMP functional assay in TeloHEAC cells. Particulars: TeloHEAC cells stably expressing human CRF2a receptor, relative to urocortin 2 (100 nM = 100%). It is filed as cell-based. Summed up: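 TeloHEAC cells stably expressing human CRF2a (10000 cells/well, suspended in HBSS/20 mM HEPES with 2 mM IBMX) were exposed to compounds for 30 min at 37 °C. cAMP was read as the 665/620 nm fluorescence ratio after 1 h at room temperature. EC50 was derived relative to 100 nM urocortin 2, set as 100%.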

For `CC[C@H](C)[C@H](NC(C)=O)C(=O)N[C@H](C(=O)N[C@@H](CC(C)C)C(=O)N[C@@H](CO)C(=O)N[C@@H](CC(C)C)C(=O)N[C@@H](CC(=O)O)C(=O)N[C@@H](C(=O)N1CCC[C@H]1C(=O)N[C@H](C(=O)N[C@@H](CCCCN)C(=O)N[C@@H](CC(C)C)C(=O)N[C@@H](CCCCNC(=O)COCCOCCNC(=O)COCCOCCNC(=O)CC[C@H](NC(=O)CCCCCCCCCCCCCCCCC(=O)O)C(=O)O)C(=O)N[C@@H](CCCCN)C(=O)N[C@H](C(=O)N[C@@H](CC(C)C)C(=O)N[C@@H](CC(C)C)C(=O)N[C@@H](CCC(=O)O)C(=O)N[C@@H](CCC(N)=O)C(=O)N[C@@H](CCC(=O)O)C(=O)N[C@@H](CCCCN)C(=O)N[C@@H](CCC(N)=O)C(=O)N[C@@H](CCCCN)C(=O)NC(C)(C)C(=O)N[C@@H](CCC(N)=O)C(=O)N[C@@H](CCCNC(=N)N)C(=O)N[C@@H](CCC(=O)O)C(=O)N[C@@H](CCC(N)=O)C(=O)N[C@@H](C)C(=O)N[C@@H](CCC(=O)O)C(=O)N[C@H](C(=O)N[C@@H](CC(N)=O)C(=O)NC1(C(=O)N[C@@H](CCC(N)=O)C(=O)N[C@H](C(=O)N[C@@H](CC(C)C)C(=O)N[C@@H](C)C(=O)N[C@@H](CCC(N)=O)C(=O)N[C@H](C(N)=O)C(C)C)[C@@H](C)CC)CCNCC1)[C@@H](C)O)[C@@H](C)CC)[C@@H](C)CC)C(C)C)C(C)C` [compound 196] (Ac-IVLSLD[dV]PIKLK([AEEA-AEEA-γGlu-C18 diacid])KILLEQEKQK[Aib]QREQAETN[Api]QILAQV-NH2), the “Emax (% I)” value in assay [1] amounted to 9 % I. For the same compound, the EC50 in assay [1] was greater than 250 nM; in assay [2], 2.2 nM.

As to `CC[C@H](C)[C@H](NC(C)=O)C(=O)N[C@H](C(=O)N[C@@H](CC(C)C)C(=O)N[C@@H](CO)C(=O)N[C@@H](CC(C)C)C(=O)N[C@@H](CC(=O)O)C(=O)N[C@@H](C(=O)N1CCC[C@H]1C(=O)N[C@H](C(=O)N[C@@H](CCCCN)C(=O)N[C@@H](CC(C)C)C(=O)N[C@@H](CCCCNC(=O)COCCOCCNC(=O)COCCOCCNC(=O)CC[C@H](NC(=O)CCCCCCCCCCCCCCCCC(=O)O)C(=O)O)C(=O)N[C@@H](CCCCN)C(=O)N[C@H](C(=O)N[C@@H](CC(C)C)C(=O)N[C@@H](CC(C)C)C(=O)N[C@@H](CCC(=O)O)C(=O)N[C@@H](CCC(N)=O)C(=O)N[C@@H](CCC(=O)O)C(=O)N[C@@H](CCCCN)C(=O)N[C@@H](CCC(N)=O)C(=O)N[C@@H](CCCCN)C(=O)NC(C)(C)C(=O)N[C@@H](CCC(N)=O)C(=O)N[C@@H](CCCNC(=N)N)C(=O)N[C@@H](CCC(=O)O)C(=O)N[C@@H](CCC(N)=O)C(=O)N[C@@H](C)C(=O)N[C@@H](CCC(=O)O)C(=O)N[C@H](C(=O)N[C@@H](CC(N)=O)C(=O)NC(C)(C)C(=O)N[C@@H](CCC(N)=O)C(=O)N[C@H](C(=O)N[C@@H](CC(C)C)C(=O)N[C@@H](C)C(=O)N[C@@H](CCC(N)=O)C(=O)N[C@H](C(N)=O)C(C)C)[C@@H](C)CC)[C@@H](C)O)[C@@H](C)CC)[C@@H](C)CC)C(C)C)C(C)C` [compound 197] (Ac-IVLSLD[dV]PIKLK([AEEA-AEEA-γGlu-C18 diacid])KILLEQEKQK[Aib]QREQAETN[Aib]QILAQV-NH2), in assay [1], the “Emax (% I)” value came out at 5 % I and the EC50 was greater than 250 nM. In assay [2], this compound gave an EC50 of 1.28 nM.

Consider `CC[C@H](C)[C@H](NC)C(=O)N[C@H](C(=O)N[C@@H](CC(C)C)C(=O)N[C@@H](CO)C(=O)N[C@@H](CC(C)C)C(=O)N[C@@H](CC(=O)O)C(=O)N[C@@H](C(=O)N1CCC[C@H]1C(=O)N[C@H](C(=O)N[C@@H](CCCCN)C(=O)N[C@@H](CC(C)C)C(=O)N[C@@H](CCCCNC(=O)COCCOCCNC(=O)COCCOCCNC(=O)CC[C@H](NC(=O)CCCCCCCCCCCCCCCCC(=O)O)C(=O)O)C(=O)N[C@@H](CCCCN)C(=O)N[C@H](C(=O)N[C@@H](CC(C)C)C(=O)N[C@@H](CC(C)C)C(=O)N[C@@H](CCC(=O)O)C(=O)N[C@@H](CCC(N)=O)C(=O)N[C@@H](CCC(=O)O)C(=O)N[C@@H](CCCCN)C(=O)N[C@@H](CCC(N)=O)C(=O)N[C@@H](CCCCN)C(=O)NC(C)(C)C(=O)N[C@@H](CCC(N)=O)C(=O)N[C@@H](CCCNC(=N)N)C(=O)N[C@@H](CCC(=O)O)C(=O)N[C@@H](CCC(N)=O)C(=O)N[C@@H](C)C(=O)N[C@@H](CCC(=O)O)C(=O)N[C@H](C(=O)N[C@@H](CC(N)=O)C(=O)NC(C)(C)C(=O)N[C@@H](CCC(N)=O)C(=O)N[C@H](C(=O)N[C@@H](CC(C)C)C(=O)N[C@@H](C)C(=O)N[C@@H](CCC(N)=O)C(=O)N[C@H](C(N)=O)C(C)C)[C@@H](C)CC)[C@@H](C)O)[C@@H](C)CC)[C@@H](C)CC)C(C)C)C(C)C` [compound 200] (H-[NMeI]VLSLD[dV]PIKLK([AEEA-AEEA-γGlu-C18 diacid])KILLEQEKQK[Aib]QREQAETN[Aib]QILAQV-NH2), for which, in assay [1], the “Emax (% I)” value was 2 % I and the EC50 was greater than 250 nM. Also, in assay [2], the EC50 came to 0.71 nM.

As to `CCCCC(=O)N[C@H](C(=O)N[C@@H](CC(C)C)C(=O)N[C@@H](CO)C(=O)N[C@@H](CC(C)C)C(=O)N[C@@H](CC(=O)O)C(=O)N[C@@H](C(=O)N1CCC[C@H]1C(=O)N[C@H](C(=O)N[C@@H](CCCCN)C(=O)N[C@@H](CC(C)C)C(=O)N[C@@H](CCCCNC(=O)COCCOCCNC(=O)COCCOCCNC(=O)CC[C@H](NC(=O)CCCCCCCCCCCCCCCCC(=O)O)C(=O)O)C(=O)N[C@@H](CCCCN)C(=O)N[C@H](C(=O)N[C@@H](CC(C)C)C(=O)N[C@@H](CC(C)C)C(=O)N[C@@H](CCC(=O)O)C(=O)N[C@@H](CCC(N)=O)C(=O)N[C@@H](CCC(=O)O)C(=O)N[C@@H](CCCCN)C(=O)N[C@@H](CCC(N)=O)C(=O)N[C@@H](CCCCN)C(=O)N[C@@H](CCCCN)C(=O)N[C@@H](CCC(N)=O)C(=O)N[C@@H](CCCNC(=N)N)C(=O)N[C@@H](CCC(=O)O)C(=O)N[C@@H](CCC(N)=O)C(=O)N[C@@H](C)C(=O)N[C@@H](CCC(=O)O)C(=O)N[C@H](C(=O)N[C@@H](CC(N)=O)C(=O)NC(C)(C)C(=O)N[C@@H](CCC(N)=O)C(=O)N[C@H](C(=O)N[C@@H](CC(C)C)C(=O)N[C@@H](C)C(=O)N[C@@H](CCC(N)=O)C(=O)N[C@H](C(N)=O)C(C)C)[C@@H](C)CC)[C@@H](C)O)[C@@H](C)CC)[C@@H](C)CC)C(C)C)C(C)C` [compound 201] (Pentanoyl-VLSLD[dV]PIKLK([AEEA-AEEA-γGlu-C18 diacid])KILLEQEKQKKQREQAETN[Aib]QILAQV-NH2), the “Emax (% I)” value in assay [1] stood at 5 % I. Besides, the EC50 in assay [1] is greater than 250 nM; in assay [2], 1.37 nM.

Take `CCCCC(=O)N[C@H](C(=O)N[C@@H](CC(C)C)C(=O)N[C@@H](CO)C(=O)N[C@@H](CC(C)C)C(=O)N[C@@H](CC(=O)O)C(=O)N[C@@H](C(=O)N1CCC[C@H]1C(=O)N[C@H](C(=O)N[C@@H](CCCCN)C(=O)N[C@@H](CC(C)C)C(=O)N[C@@H](CCCCNC(=O)COCCOCCNC(=O)COCCOCCNC(=O)CC[C@H](NC(=O)CCCCCCCCCCCCCCCCC(=O)O)C(=O)O)C(=O)N[C@@H](CCCCN)C(=O)N[C@H](C(=O)N[C@@H](CC(C)C)C(=O)N[C@@H](CC(C)C)C(=O)N[C@@H](CCC(=O)O)C(=O)N[C@@H](CCC(N)=O)C(=O)N[C@@H](CCC(=O)O)C(=O)N[C@@H](CCCCN)C(=O)N[C@@H](CCC(N)=O)C(=O)N[C@@H](CCCCN)C(=O)NC(C)(C)C(=O)N[C@@H](CCC(N)=O)C(=O)N[C@@H](CCCNC(=N)N)C(=O)N[C@@H](CCC(=O)O)C(=O)N[C@@H](CCC(N)=O)C(=O)N[C@@H](C)C(=O)N[C@@H](CCC(=O)O)C(=O)N[C@H](C(=O)N[C@@H](CC(N)=O)C(=O)NC(C)(C)C(=O)N[C@@H](CCC(N)=O)C(=O)N[C@H](C(=O)N[C@@H](CC(C)C)C(=O)N[C@@H](C)C(=O)N[C@@H](CCC(N)=O)C(=O)N[C@H](C(N)=O)C(C)C)[C@@H](C)CC)[C@@H](C)O)[C@@H](C)CC)[C@@H](C)CC)C(C)C)C(C)C` [compound 202] (Pentanoyl-VLSLD[dV]PIKLK([AEEA-AEEA-γGlu-C18 diacid])KILLEQEKQK[Aib]QREQAETN[Aib]QILAQV-NH2): in assay [1], the “Emax (% I)” value turned out to be 8 % I and the half-maximal effective concentration (EC50) is greater than 250 nM. The same compound had an EC50 in assay [2] of 1.73 nM.
